Here are results for one molecule from patent publication US6689749B1, “Neuropeptides originating in scorpion” (Suntory Limited, priority 1996, dated 2004).

The assay addresses T1, rat brain voltage-gated K+ channel, Kv1.3 (Rattus norvegicus, UniProt P15384).
T1 construct: expressed in transfected cells; host or cells: Xenopus oocytes (cRNA injection; pAS18 vector, SP6 transcription; clone from Prof; O. Pongs)
The assay can be described thus: Assay of K+ channel inhibition: two-electrode voltage clamp of Kv1.3 expressed in Xenopus oocytes. Format: cell-based. As to conditions: IC50 comparison with C-terminally amidated HsTX1. The method, then: Assay on inhibitory activity of the peptides on K^+ channels was performed in the following manner. The gene of the rat brain voltage-gated K^+ channel, Kv1.3 (Stuhmer et al., EMBO J., 8, vol. 11, pp. 3235-3244, 1988), which was graciously contributed by Prof. O. Pongs (Institute für Neurale Signalverarbeitung, Hamburg, Germany) was inserted into pAS18 vector according to a conventional technique. This vector was treated with EcoRI and then the resultant clone was transcribed in vitro with SP6 RNA polymerase using a transcription kit (Stratagene Inc., USA). The cRNA obtained was injected into Xenopus oocytes 16-72 hr prior to electrophysiological experiments.
The oocytes which had been expressed the Kv1.3 gene were added to a 100 μl-chamber filled with an ND96 solution (0.3 mM CaCl2, 1 mM MgCl2, 2 mM KCl and 96 mM NaCl in 5 mM Hepes buffer, pH 7.6) supplemented with 50 mg/ml of bovine serum albumin (BSA), and the ND96 solution was continuously perfused through reservoirs at a flow rate of 4 ml/min. The sample to be tested was separately dissolved to an ND96 solution and then added to the chamber by perfusion through a reservoir. The switching from one reservoir to another for each experiment was performed by means of Teflon valves. All measurements were made at room temperature (about 22° C.). […]
(In two-electrode clamp one electrode senses voltage and the other passes current.)

T1 sequence (P15384 whole entry): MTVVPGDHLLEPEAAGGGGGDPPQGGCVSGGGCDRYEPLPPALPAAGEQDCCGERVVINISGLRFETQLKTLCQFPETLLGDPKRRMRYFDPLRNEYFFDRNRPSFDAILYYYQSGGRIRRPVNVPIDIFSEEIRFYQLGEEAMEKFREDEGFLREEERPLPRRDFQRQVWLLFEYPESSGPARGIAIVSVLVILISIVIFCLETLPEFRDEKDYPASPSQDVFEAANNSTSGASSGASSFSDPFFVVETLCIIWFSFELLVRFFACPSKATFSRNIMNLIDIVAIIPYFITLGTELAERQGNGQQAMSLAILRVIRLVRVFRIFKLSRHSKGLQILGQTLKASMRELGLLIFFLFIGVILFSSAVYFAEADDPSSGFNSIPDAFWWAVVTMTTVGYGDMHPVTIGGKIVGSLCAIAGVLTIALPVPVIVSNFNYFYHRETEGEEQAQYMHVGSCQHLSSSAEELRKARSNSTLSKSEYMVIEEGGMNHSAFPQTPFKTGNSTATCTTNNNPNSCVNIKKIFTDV

Regarding `CSCC[C@@H]1NC(=O)[C@@H]2CSSC[C@H](NC(=O)[C@H](CO)NC(=O)[C@H](C)N)C(=O)N[C@@H](CCCNC(=N)N)C(=O)N[C@@H]([C@@H](C)O)C(=O)N3CCC[C@H]3C(=O)N[C@@H](CCCCN)C(=O)N[C@@H](CC(=O)O)C(=O)N[C@H]3CSSC[C@H](NC(=O)[C@H](CCCCN)NC(=O)[C@H](CCCNC(=N)N)NC(=O)[C@H](CC(N)=O)NC1=O)C(=O)N[C@@H](CCCCN)C(=O)N[C@H]1CSSC[C@H](NC(=O)[C@@H]4CCCN4C(=O)[C@H](CC(=O)O)NC(=O)[C@H](C)NC3=O)C(=O)N[C@@H](CCCNC(=N)N)C(=O)N[C@@H](CCCCN)C(=O)N[C@@H](CCC(=O)O)C(=O)N[C@@H]([C@@H](C)O)C(=O)NCC(=O)N[C@@H](CSSC[C@@H](C(=O)O)NC(=O)[C@H](CCCNC(=N)N)NC(=O)[C@H](CC(N)=O)NC1=O)C(=O)N1CCC[C@H]1C(=O)N[C@@H](Cc1ccc(O)cc1)C(=O)NCC(=O)N[C@@H](CCCCN)C(=O)N2` [HsTX1-COOH], the “activity relative to HsTX1 on Kv1.3” value is recorded as “about one-fifth”.
